# Experimental data reported in US7790896B2, “RNA-selective probes for live cell imaging of nuclear structure and function” (New York University, priority 2006, dated 2010).
# What was measured:
# [1] = tested on: Hela, A549, 3T3, and 3T3-L1 cells; assay: Dye cell-tolerability: cell viability and morphology changes observed; format: cell-based, human, mouse; details: 20 μM, after 8 hours
# Protocol: Low cytotoxicity is one of the most important criteria for live cell imaging probes. All four compounds were tested at 20 μM, 10 μM, 5 μM, and 1 μM in Hela, A549, 3T3, and 3T3-L1 cells. Cell viability and morphology changes were observed during 2, 8, and 24 hours. Only dye E36 was toxic to A549, 3T3, and 3T3-L1 cells at high concentration (20 μM) after 8 hours.
# [2] = tested on: Hela, A549, 3T3, and 3T3-L1; assay: Optimization of working concentration and imaging properties, live cell staining; format: cell-based, human, mouse; details: 20, 10, 5 and 1 μM tested in four cell lines
# Protocol: (§1) All cell staining imaging followed the same procedure. Generally, dyes in dry state were first dissolved in DMSO to obtain the stock solution. The stock solutions were then added directly to the cell culture wells to reach the desired concentration. Total DMSO was lower than 0.1%. After adding dyes, cells were incubated at 37° C. in 5% CO2 for 25 minutes. The medium was then removed and cells were rinsed with fresh medium twice. The cells were then imaged at ambient temperature in the medium. Exposure time was kept less than 5 seconds and adjusted to each dye.
# In fluorescence microscopic imaging studies, it is always desirable to use as little dye as possible to stain organelles in order to maximize specificity and minimize dye toxicity and cell death. To determine the lowest working concentration of each dye, four different concentrations (20 μM, 10 μM, 5 μM, and 1 μM) were tested in four cell lines (Hela, A549, 3T3, and 3T3-L1). Dyes E36, E144, and F112 were imaged using FITC channel, and F22 was imaged using Cy3 channel. Generally, a quality fluorescence signal for each dye was produced using a concentration of 5 μM for E36, E144, and F22 and 10 μM for F112 (Table 5). It was interesting to observe that compound F22 was brighter in 3T3 cells, and a concentration of 1 μM was sufficient for a clear image (FIG. 4). […] Little photobleaching and no obvious cell morphology or viability changes were observed during the tests.
# [3] = Fluorescence spectrum in TE buffer of dyes selected from live cell imaging; format: physicochemical; details: dye 10 μM in TE buffer
# Protocol: (§2) The fluorescence spectra data in the primary screening and selected dyes titration assay study was obtained by Gemini XS plate reader. RNA solution was prepared right before the assay experiments to avoid possible degradation and contamination. In the primary screening, 1 mg/mL RNA (type VI from torula yeast) buffer solution was used. Point scans were carried out first using five Ex/Em point sets ([…], 400/500, 450/550, 500/600, 550/650 nm). Spectra scans were then carried out for the selected dyes. Excitation wavelengths were set at 350 nm, 400 nm, 450 nm, 500 nm, and 550 nm and the emission wavelengths were scanned. RNA (16S- and 23S-ribosomal from E. coli) and DNA (salmon testes) titration experiments and quantum yield/extinction coefficient determination for the three best dyes were carried out by the plate reader as well. Excitation λmax obtained from F-2500 Hitachi Fluorophotometer was used. Absorbance wavelength was determined by SpectraMax Plus^384 absorbance plate reader. […] was chosen as standard and 480 nm was used as excitation wavelength in the scanning for quantum yield determination.
# [4] = tested on: RNA (Type VI from torula yeast); assay: In vitro solution assay (primary screening): fluorescent emission fold change upon binding to RNA; details: dye 10 μM, RNA 500 μg/mL in TE buffer
# Protocol: as §2
# The screening strategy used in this study is illustrated in FIG. 2. Both in vitro RNA assays and live cell imaging methods were utilized in the primary screening of the dye library. Selective binding of the dye to RNA in solution was the primary criterion for selecting lead compounds for subsequent bioimaging studies, Herein, the library dyes' fluorescent emission intensity fold change upon binding to RNA was measured in solution. Dyes showing five-fold or higher emission changes in the presence of RNA were selected (Table 3). Note the dyes listed are identified by the building blocks I and II from Table 2. For example, A4 is the product made by reacting compound A from the list of Building block I and compound 4 from the list of Building block II.
# 3T3 cells = assay: Live cell staining working concentration in 3T3 cells; format: cell-based, mouse
# Protocol: as §1
# In fluorescence microscopic imaging studies, it is always desirable to use as little dye as possible to stain organelles in order to maximize specificity and minimize dye toxicity and cell death. To determine the lowest working concentration of each dye, four different concentrations (20 μM, 10 μM, 5 μM, and 1 μM) were tested in four cell lines (Hela, A549, 3T3, and 3T3-L1). Dyes E36, E144, and F112 were imaged using FITC channel, and F22 was imaged using Cy3 channel. Generally, a quality fluorescence signal for each dye was produced using a concentration of 5 μM for E36, E144, and F22 and 10 μM for F112 (Table 5). It was interesting to observe that compound F22 was brighter in 3T3 cells, and a concentration of 1 μM was sufficient for a clear image (FIG. 4). […]
# A549 = assay: Phototoxicity test, MTS assay of irradiated cells; format: cell-based, human; details: dye 5 μM, irradiated 5 minutes, 24 hours incubation
# Protocol: Dye DMSO stock solutions were diluted by fresh medium into working concentration (5 μM). Cells were cultured in 96-well plate for 12 hours before experiments. The cell medium was exchanged with dye medium solutions. Cells were then incubated in at 37° C., in 5% CO2 for 25 minutes before being irradiated by fluorescent light using the appropriate working filter (FITC for E36 and E144; Cy3 for F22) for 5 minutes. The plates were then incubated at 37° C. in 5% CO2 The cell viability was measured by MTS assay after 5 and 24 hours following the cytotoxicity measurement procedure. Duplicated experiments have been tested.
# Phototoxicity is also an important factor in evaluating applicability of new fluorescent probes for live cell imaging. […] Nevertheless, it is desirable for the new imaging probes to be as non-phototoxic as possible. To investigate the phototoxicity of the present RNA-selective compounds, cellular viability of irradiated cells using MTS assay was assessed. Cells were incubated with dyes (E36, E144, and F22) in their working concentration (5 μM), and then irradiated with the appropriate filters using the fluorescent microscope (FITC for E36 and E144; Cy3 for F22). While light exposures used for imaging experiments are generally a few seconds long at most, cells were irradiated for 5 minutes for prolonged toxicity measurement. […]
SMILES,Toxicity (cell viability and morphology changes) [1],Optimum Concentration for live cell imaging [2] [µM],SPECTRUM EM [3] [nm],SPECTRUM EX [3] [nm],Em(nm) [4] [nm],Ex(nm) [4] [nm],Fold (fluorescent emission fold changes to RNA) [4],Concentration sufficient for a clear image (3T3 cells) [µM],Phototoxicity (A549)
C[n+]1c(/C=C/c2c[nH]c3ccccc23)ccc2ccccc21 [Dye E36],toxic,5,550,450,–,–,–,–,–
COc1cc(OC)c(/C=C/c2ccc3ccccc3[n+]2C)c(OC)c1 [Dye E144],–,5,–,–,540,450,5,–,–
COc1ccc2c(ccc(/C=C/c3ccc(N(C)C)cc3)[n+]2C)c1 [Dye F22],–,–,–,–,640,500,23,1,not A549
